In patent US20260028354A1, “TETRAHYDRONAPHTHALENE DERIVATIVES AS ESTROGEN RECEPTOR DEGRADERS” (REGENT OF THE UNIVERSITY OF MICHIGAN, priority 2022, published 2026) one finds Dmax, DC50 and IC50 data, which are given here for 14 molecules.

Assay [1] deals with ER in MCF-7 cells (Homo sapiens (Human), UniProt P03372). Kind of assay: In-cell Western (ICW) ER degradation assay in MCF-7 cells. Format: cell-based. To be noted: for DC50: MCF-7, ER degradation, read-out: MCF7 DC50.
In assay [2] the test system is MCF-7 cells. In words: CellTiter-Glo (CTG) cell proliferation assay in MCF-7 cells. It counts as cell-based. The note with it: Homo sapiens, MCF7, 144 h, MCF-7 cell proliferation, Day 6. From the text:
CellTiter-Glo® (CTG) Assays in MCF-7 and T47D Cell Lines.
In vitro Assay: MCF-7 and T47D CTG assay
Background: In ATP-based viability assays light output follows the ATP content of the culture.

The mark [3] stands for this setting: MCF7, read-out: MCF7 Dmax, MCF-7, maximal ER degradation, 16 hrs treatment.
[4] abbreviates: MCF7, MCF-7, maximal ER degradation, 16 hrs treatment, read-out: MCF7 Dmax.

Each structure is given as a SMILES string. pIC50: −log10 of the molar value. Where two headings read alike, the source gives them in different places.

Chain of ER in MCF-7 cells (P03372 whole entry): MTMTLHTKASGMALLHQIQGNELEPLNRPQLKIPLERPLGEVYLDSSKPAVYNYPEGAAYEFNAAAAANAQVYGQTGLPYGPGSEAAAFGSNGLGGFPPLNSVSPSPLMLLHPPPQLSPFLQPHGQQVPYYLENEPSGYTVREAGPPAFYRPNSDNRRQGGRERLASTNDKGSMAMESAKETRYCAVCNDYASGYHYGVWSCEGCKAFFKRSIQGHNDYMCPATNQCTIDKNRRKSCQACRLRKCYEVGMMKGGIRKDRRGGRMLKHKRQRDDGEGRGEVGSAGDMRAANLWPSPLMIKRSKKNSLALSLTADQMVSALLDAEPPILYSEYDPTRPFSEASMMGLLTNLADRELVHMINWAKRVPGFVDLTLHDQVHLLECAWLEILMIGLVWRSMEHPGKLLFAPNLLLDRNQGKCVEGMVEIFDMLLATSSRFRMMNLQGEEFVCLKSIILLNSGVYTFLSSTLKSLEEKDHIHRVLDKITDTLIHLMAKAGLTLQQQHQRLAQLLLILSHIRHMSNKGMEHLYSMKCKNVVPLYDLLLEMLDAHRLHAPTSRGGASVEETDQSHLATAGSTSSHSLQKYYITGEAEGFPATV

A word on the Dmax: it is the largest share of the target that was removed. Usually DC50 stands for the midpoint of the concentration-degradation curve. The pIC50 is −log10 of the IC50, conventionally taken in molar units. Higher therefore signals a small IC50. As for `COc1cc(N2CC3(CCC(CN4CCC5(CC4)COc4nc(C(=O)N[C@H]6CCC(=O)NC6=O)ccc45)CC3)C2)c(F)cc1[C@@H]1c2ccc(O)cc2CC[C@@H]1c1ccccc1` [Compound A179, N-((S)-2,6-dioxopiperidin-3-yl)-1′-((2-(2-fluoro-4-((1S,2S)-6-hydroxy-2-phenyl-1,2,3,4-tetrahydronaphthalen-1-yl)-5-methoxyphenyl)-2-azaspiro [3.5]nonan-7-yl)methyl)-2H-spiro[furo[2,3-b]pyridine-3,4′-piperidine]-6-carboxamide], in assay [1] (setting [3]), the Dmax is > 75%. In addition, the DC50 in assay [1] (16 hrs treatment) was < 1 nM. Besides, the pIC50 in assay [2] is < 7.00.

For the molecule `O=C1CC[C@H](N2Cc3c(ccc4c3OCC43CCN(CC4CC5(CCN(c6cnc(C7c8ccc(O)cc8CCC7c7ccccc7)cn6)CC5)C4)CC3)C2=O)C(=O)N1` (stereo partly drawn) [Compound A201, (3S)-3-(1′-((7-(5-(6-hydroxy-2-phenyl-1,2,3,4-tetrahydro-naphthalen-1-yl)pyrazin-2-yl)-7-azaspiro[3.5]nonan-2-yl)-methyl)-6-oxo-6,8-dihydro-2H, 7H-spiro[furo[2,3-e]isoindole-3,4′-piperidin]-7-yl)piperidine-2,6-dione], in assay [1] (setting [3]), the Dmax was in the range of 50 to 75%. Further, in assay [1] (16 hrs treatment), the DC50 is < 1 nM. The pIC50 in assay [2] was < 7.00.

As for `COc1cc(N2CCC3(CC2)CC(CN2CCC4(CC2)COc2c4cc4c(c2Cl)C(=O)N([C@H]2CCC(=O)NC2=O)C4)C3)c(F)cc1[C@@H]1c2ccc(O)cc2CC[C@@H]1c1ccccc1` [Compound A218, (S)-3-(8-chloro-1′-((7-(2-fluoro-4-((1S,2S)-6-hydroxy-2-phenyl-1,2,3,4-tetrahydro-naphthalen-1-yl)-5-methoxy-phenyl)-7-azaspiro[3.5]nonan-2-yl)methyl)-7-oxo-5,7-dihydro-2H,6H-spiro[furo[2,3-f]isoindole-3,4′-piperidin]-6-yl)piperidine-2,6-dione], in assay [1] (setting [3]), the greatest degradation seen (Dmax) is > 75%. In assay [1] (16 hrs treatment), the DC50 is < 1 nM. Also, the pIC50 in assay [2] was > 8.00.

On to `COc1cc(N2CCC(CCN3CCC4(CC3)COc3c4ccc4c3CN([C@H]3CCC(=O)NC3=O)C4=O)CC2)c(F)cc1[C@@H]1c2ccc(O)cc2CC[C@@H]1c1ccccc1` [Compound A187, (S)-3-(1′-(2-(1-(2-fluoro-4-((1S,2S)-6-hydroxy-2-phenyl-1,2,3,4-tetrahydronaphthalen-1-yl)-5-methoxyphenyl)piperidin-4-yl)ethyl)-6-oxo-6,8-dihydro-2H,7H-spiro[furo[2,3-e]iso-indole-3,4′-piperidin]-7-yl)-piperidine-2,6-dione], for which the Dmax in assay [1] (setting [3]) is > 75%. The DC50 in assay [1] (16 hrs treatment) was < 1 nM. For the same molecule, the negative-log IC50 (pIC50) in assay [2] was 7.00 to 8.00.

Turning to `COC1(CCN2CCN3c4ccc5c(c4OC[C@H]3C2)CN([C@H]2CCC(=O)NC2=O)C5=O)CCN(c2ccc([C@@H]3c4ccc(O)cc4CC[C@@H]3c3ccccc3)cc2)CC1` [Compound A192, (S)-3-((R)-7-(2-(1-(4-((1R,2S)-6-hydroxy-2-phenyl-1,2,3,4-tetrahydronaphthalen-1-yl)-phenyl)-4-methoxypiperidin-4-yl)cthyl)-1-oxo-1,3,5,5a,6,7,8,9-octahydro-2H-pyrazino[1′,2′: 4,5][1,4]oxazino[2,3-e]isoindol-2-yl)piperidine-2,6-dione], the Dmax in assay [1] (setting [4]) was > 75%. Also, the DC50 in assay [1] (16 hrs treatment) is < 1 nM. In addition, the negative-log IC50 (pIC50) in assay [2] was < 7.00.

Consider `COc1cc(N2CCC3(CC[C@@H](CN4CCC5(CC4)COc4c5cc(Cl)c5c4CN([C@H]4CCC(=O)NC4=O)C5=O)CO3)CC2)c(F)cc1[C@@H]1c2ccc(O)cc2CC[C@@H]1c1ccccc1` [Compound A234, (S)-3-(5-chloro-1′-(((S)-9-(2-fluoro-4-((1S,2S)-6-hydroxy-2-phenyl-1,2,3,4-tetrahydronaphthalen-1-yl)-5-methoxyphenyl)-1-oxa-9-azaspiro[5.5]undecan-3-yl)methyl)-6-oxo-6,8-dihydro-2H,7H-spiro[furo[2,3-e]isoindole-3,4′-piperidin]-7-yl)piperidine-2,6-dione], for which, in assay [1] (setting [3]), the Dmax was > 75%. The DC50 in assay [1] (16 hrs treatment) is < 1 nM. Also, the pIC50 in assay [2] was > 8.00.

As for `COc1cc(N2CCC3(CC[C@@H](CN4CCC5(CC4)COc4c5cc(C)c5c4CN([C@H]4CCC(=O)NC4=O)C5=O)CO3)CC2)c(F)cc1[C@@H]1c2ccc(O)cc2CC[C@@H]1c1ccccc1` [Compound A227, (S)-3-(1′-(((S)-9-(2-fluoro-4-((1S,2S)-6-hydroxy-2-phenyl-1,2,3,4-tetrahydronaphthalen-1-yl)-5-methoxyphenyl)-1-oxa-9-azaspiro[5.5]undecan-3-yl)methyl)-5-methyl-6-oxo-6,8-dihydro-2H,7H-spiro[furo[2,3-e]isoindole-3,4′-piperidin]-7-yl)piperidine-2,6-dione], the maximal degradation (Dmax) in assay [1] (setting [3]) is > 75%. Moreover, the 50% degradation concentration (DC50) in assay [1] (16 hrs treatment) was < 1 nM. Moreover, the negative-log IC50 (pIC50) in assay [2] was > 8.00.

`COc1c([C@@H]2c3ccc(O)cc3CC[C@@H]2c2ccccc2)ccc(N2CCC3(CC2)CC(CN2CCC4(CC2)COc2c4ccc4c2CN([C@H]2CCC(=O)NC2=O)C4=O)C3)c1F` [Compound A198, (S)-3-(1′-((7-(2-fluoro-4-((1S, 2S)-6-hydroxy-2-phenyl-1,2,3,4-tetrahydronaphthalen-1-yl)-3-methoxyphenyl)-7-aza-spiro[3.5]nonan-2-yl)methyl)-6-oxo-6,8-dihydro-2H,7H-spiro[furo[2,3-e]isoindole-3,4′-piperidin]-7-yl)piperidine-2,6-dione]: the Dmax in assay [1] (setting [3]) lay within 50 to 75%. Also, in assay [1] (16 hrs treatment), the half-maximal degradation concentration (DC50) was < 1 nM. Moreover, the pIC50 in assay [2] is 7.00 to 8.00.

In the case of `O=C1CC[C@H](N2Cc3cc4c(cc3C2=O)OCC42CCN(CC3CC4(CCN(c5cnc(C6c7ccc(O)cc7CCC6c6ccccc6)cn5)CC4)C3)CC2)C(=O)N1` (stereo partly drawn) [Compound A202, (3S)-3-(1′-((7-(5-(6-hydroxy-2-phenyl-1,2,3,4-tetrahydronaph-thalen-1-yl)pyrazin-2-yl)-7-azaspiro[3.5]nonan-2-yl)meth-yl)-7-oxo-5,7-dihydro-2H,6H-spiro[furo[2,3-f]isoindole-3,4′-piperidin]-6-yl)piperidine-2,6-dione], the Dmax in assay [1] (setting [3]) was in the range of 50 to 75%. Also, the DC50 in assay [1] (16 hrs treatment) was < 1 nM. Further, the negative-log IC50 (pIC50) in assay [2] was < 7.00.

For `COc1cc(N2CC(CCN3CCC4(CC3)COc3c4ccc4c3CN([C@H]3CCC(=O)NC3=O)C4=O)C2)c(F)cc1[C@@H]1c2ccc(O)cc2CC[C@@H]1c1ccccc1` [Compound A206, (S)-3-(1′-(2-(1-(2-fluoro-4-((1S,2S)-6-hydroxy-2-phenyl-1,2,3,4-tetrahydronaphthalen-1-yl)-5-methoxyphenyl)azet-idin-3-yl)ethyl)-6-oxo-6,8-dihydro-2H,7H-spiro[furo[2,3-e]isoindole-3,4′-piperidin]-7-yl)piperidine-2,6-dione], in assay [1] (setting [3]), the Dmax was 50 to 75%. The DC50 in assay [1] (16 hrs treatment) was in the range of 1 to 10 nM. Further, the pIC50 in assay [2] was < 7.00.

`COc1cc(N2CCC(CCN3CCC4(CC3)COc3cc5c(cc34)CN([C@H]3CCC(=O)NC3=O)C5=O)CC2)c(F)cc1[C@@H]1c2ccc(O)cc2CC[C@@H]1c1ccccc1` [Compound A189, (S)-3-(1′-(2-(1-(2-fluoro-4-((1S,2S)-6-hydroxy-2-phenyl-1,2,3,4-tetrahydronaphthalen-1-yl)-5-methoxyphenyl)piper-idin-4-yl)ethyl)-7-oxo-5,7-dihydro-2H,6H-spiro[furo[2,3-f]isoindole-3,4′-piperidin]-6-yl)piperidine-2,6-dione]: in assay [1] (setting [3]), the Dmax was > 75%. Also, the half-maximal degradation concentration (DC50) in assay [1] (16 hrs treatment) was < 1 nM. Moreover, in assay [2], the pIC50 was 7.00 to 8.00.

For the molecule `COc1cc2c(c3c1C(=O)N([C@H]1CCC(=O)NC1=O)C3)OCC21CCN(C[C@@H]2CCC3(CCN(c4ccc([C@@H]5c6ccc(O)cc6CC[C@@H]5c5ccccc5)cc4)CC3)OC2)CC1` [Compound A236, (S)-3-(1′-(((S)-9-(4-((1R,2S)-6-hydroxy-2-phenyl-1,2,3,4-tetrahydronaphthalen-1-yl)phenyl)-1-oxa-9-azaspiro[5.5]undecan-3-yl)methyl)-5-methoxy-6-oxo-6,8-dihydro-2H,7H-spiro[furo[2,3-e]isoindole-3,4′-piperidin]-7-yl)piperidine-2,6-dione], the Dmax in assay [1] (setting [3]) was > 75%. For the same molecule, the DC50 in assay [1] (16 hrs treatment) was < 1 nM. The same molecule gave a pIC50 in assay [2] of 7.00 to 8.00.

As to `COc1cc(N2CCC(CCN3CCN4c5cc(C)c6c(c5OC[C@H]4C3)CN([C@H]3CCC(=O)NC3=O)C6=O)CC2)c(F)cc1[C@@H]1c2ccc(O)cc2CC[C@@H]1c1ccccc1` [Compound A229, (S)-3-((R)-7-(2-(1-(2-fluoro-4-((1S,2S)-6-hydroxy-2-phenyl-1,2,3,4-tetrahydronaphthalen-1-yl)-5-methoxyphenyl)piper-idin-4-yl)ethyl)-12-methyl-1-oxo-1,3,5,5a,6,7,8,9-octahydro-2H-pyrazino[1′,2′:4,5][1,4]oxazino[2,3-e]isoindol-2-yl)-piperidine-2,6-dione], the maximal degradation (Dmax) in assay [1] (setting [4]) is > 75%. In assay [1] (16 hrs treatment), the DC50 is < 1 nM. The pIC50 in assay [2] is 7.00 to 8.00.

On to `COc1cc(N2CCC3(CC2)CC(CN2CCC4(CC2)COc2c4cc(C)c4c2CN([C@H]2CCC(=O)NC2=O)C4=O)C3)c(F)cc1[C@@H]1c2ccc(O)cc2CC[C@@H]1c1ccccc1` [Compound A203, (S)-3-(1′-((7-(2-fluoro-4-((1S,2S)-6-hydroxy-2-phenyl-1,2,3,4-tetrahydronaphthalen-1-yl)-5-methoxyphenyl)-7-azaspiro[3.5]nonan-2-yl)methyl)-5-methyl-6-oxo-6,8-dihydro-2H,7H-spiro[furo[2,3-e]isoindole-3,4′-piperidin]-7-yl)piperidine-2,6-dione], for which the Dmax in assay [1] (setting [3]) was > 75%. The DC50 in assay [1] (16 hrs treatment) is < 1 nM. In assay [2], the pIC50 is > 8.00.
